Patent publication US8110570B2, “Modulators of acetyl-coenzyme A carboxylase and methods of use thereof” (Cropsolution, Inc., priority 2008, dated 2012)

Experiments:
hACC2 = target: T1, hACC2 (Homo sapiens, UniProt O00763); test: [14C]bicarbonate incorporation assay, overall ACC activity; assay type: biochemical; details: recombinant hACC2, overall ACC activity
T1 construct: delete amino acids 1-148 and add Met-Gly in front of Lys149 in the final product; His tag (C); made in house; host or cells: baculovirus, Sf9 insect cells
Outline: (§1)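 His-tagged full-length hACC1 or hACC2 (residues 1-148 deleted, Met-Gly added), expressed in sf9 cells with biotin and purified, were assayed by [14C]bicarbonate incorporation into acetyl-CoA. Reactions at pH 7.4 with 2 mM acetyl-CoA, 12 mM NaHCO3 and 1% DMSO were started with 2 mM ATP and run 10 min at 37° C. Acid-stable label was counted and IC50 obtained from dose-response fits.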

hACC1 = target: T2, hACC1 (Homo sapiens, UniProt Q13085); test: as above; assay type: biochemical; details: recombinant hACC1, overall ACC activity
T2 construct: PCR primers were designed for full-length hACC1 and hACC2 using GenBank submissions AY237919 and AJ575592, respectively; His tag (C); made in house; host or cells: baculovirus, Sf9 insect cells
Outline: as §1

[1] = target: uACC (Ustilago maydis ACC) (Ustilago maydis, UniProt A0A0D1DYD5); test: as above; assay type: biochemical
HepG2 cells = test: Fatty acid synthesis assay, 14C-acetate incorporation into phospholipids; assay type: cell-based; details: Homo sapiens, 24 h, read-out: inhibition of radiolabel incorporation into phospholipids
Description: (§2) The in vivo ACC inhibitory activity of compounds in this invention can be confirmed in cultured cells using standard procedures that are well known to those skilled in the art. For example, since ACC catalyzes the first committed step in fatty acid biosynthesis, the in vivo activity of compounds can be confirmed by measuring their ability to prevent the formation of radiolabeled fatty acids from radiolabeled acetate in cultured human hepatoma cells (HepG2). In addition, since the malonyl-CoA produced by ACC inhibits fatty acid oxidation, the in vivo ACC inhibitory activity of compounds can be further confirmed by measuring the stimulation of fatty acid oxidation in cultured mouse myoblast cells (C2C12).
Fatty acid synthesis assays are performed with slight modifications to published procedures (Beckers et al., Cancer Res, 2007, 67: 8180-8187; Wang, J Lipid Res., 2006, 47:2028-41). Briefly, HepG2 cells are grown in Dulbecco's modified eagles medium containing 10% fetal calf serum in 6-well culture plates. Cells are treated for 24 h with test compounds added as DMSO stock solutions to a final DMSO concentration of 0.5% (v/v). After test compound incubation, ^14C—[2]-acetate is added (3 μCi/6 well plate) and cells are further incubated for 4 hrs. Cells are then harvested in 40% methanol and assayed for total protein. Total lipids are extracted with chloroform:methanol (2:1) and ^14C-radioactivity is quantified in the aqueous and organic phases. Total lipids in the organic phase are separated by thin-layer chromatography (TLC, silica gel 60A) using hexane:ether:acetic acid (90:30:1) as the mobile phase. Radioactivity distribution of lipid classes on TLC plates is quantified by phosphorimaging (Molecular Dynamics Storm 820). Compound 6 inhibited radiolabel incorporation into phospholipids 32% and 14% at 10 μM and 1 μM, respectively, while Compound 2 inhibited radiolabel incorporation into phospholipids 93% and 42% at 10 μM and 1 μM, respectively.

C2C12 cells = test: Fatty acid oxidation assay, [1-14C]palmitate to CO2; assay type: cell-based, mouse; details: compared to untreated controls
Description: as §2
Fatty acid oxidation assays are performed essentially as described (Beckers et al., Cancer Res, 2007, 67: 8180-8187). Briefly, C2C12 cells are plated at 600,000 cells/T25 flask. The next day, media is changed and the DMSO with or without test compound is added to a final concentration of 0.5% (v/v). After 1 h at 37° C. in atmosphere of 5% CO2, freshly made 2 uCi of FA-free bovine serum albumin-[1-^14C] palmitate complex is added to each flask. The flasks are then sealed with a stopper and incubated 6 h at 37° C. after which evolved CO2 is liberated by injection of perchloric acid to final concentration of 5% and captured by incubating the flasks overnight in the presence of filter paper soaked with 5% KOH. The filters are then air-dried and incubated with scintillation cocktail overnight for equilibrium. Radioactivity is quantified by scintillation counting.

[2] = test system: MDA-MB-231 human breast cancer cells; test: MTT Cell Proliferation Assay; assay type: cell-based; details: 72 hours, read-out: Percent of Control MDA-MB-231
Experimental: (§3) The anti-proliferative activity of test compounds against human tumor cell lines is evaluated in vitro using the ATCC's MTT Cell Proliferation Assay (Catalog No. 30-100K). Cell lines are grown using media, serum, and culture conditions recommended by the ATCC. Stock cultures are allowed to grow to 70-80% confluence. Cells are seeded into 96-well culture plates at a predetermined density on day 0 in complete medium (0.1 mL). Plates are placed in a humidified incubator at 37° C. with 5% CO2 and 95% HEPA filtered room air for 24 hours. At this point compound (0.1 mL of 2× stock (in media)) is added to the indicated wells and the plates are returned to the incubator for 72 hours. Cell proliferation is measured by addition of MTT reagent to each well and incubated for an additional 4 hours, followed by addition of cell lysis/MTT solublization reagent and incubating overnight. […] Results are expressed as percent of control cells versus compound concentration. Compounds of the present invention, and salts thereof, were evaluated for anti-proliferative activity as described above.

[3] = test system: A2780 human ovary cancer cells; test: MTT Cell Proliferation Assay; assay type: cell-based; details: 72 hours, read-out: Percent of Control A2780
Experimental: as §3

[4] = test system: PC-3 human prostate cancer cells; test: MTT Cell Proliferation Assay; assay type: cell-based; details: 72 hours, read-out: Percent of Control PC-3
Experimental: as §3

[5] = test system: HCT-116 human colon cancer cells; test: MTT Cell Proliferation Assay; assay type: cell-based; details: 72 hours, read-out: Percent of Control HCT-116
Experimental: as §3

[6] = test system: hepatic fatty acid synthesis; test: In vivo inhibition of rat hepatic fatty acid synthesis; details: oral
Experimental: In vivo measurement of fatty acid synthesis inhibition in mammals. Incorporation of [2-^14C]acetate into saponifiable lipids in the livers of mammals (e.g. Sprague Dawley rats, Charles River Laboratories, Boston, Mass. or Harlan Laboratories, Indianapolis, Ind.) can be measured as described previously (Harwood Jr. H. J. et al., J Biol Chem, 39: 37099-37111 (2003)). For example, animals given food and water ad libitum are treated orally at volume of 1.0 ml/200 g of body weight with either an aqueous solution containing 0.5% methyl cellulose (vehicle) or an aqueous solution containing 0.5% methyl cellulose containing test compound. One hour after compound administration, animals receive an intraperitoneal injection of [2-^14C]acetate (0.02 mL, 1 mCi/mL; 50 mCi/mmol. One hour after radiolabel administration, animals are sacrificed by CO2 asphyxiation, and two liver pieces (about 0.75 g each) are removed and saponified at 70° C. for 120 min in 2.5 M NaOH (1.5 mL). After saponification, absolute EtOH (2.5 mL) is added to each sample and the solutions are mixed and allowed to stand overnight. Petroleum ether (4.8 mL) is then added to each sample, and after vigorous shaking (2 min) the mixtures are centrifuged at 1000×g (5 min). The petroleum ether layer containing the nonsaponifiable lipids is removed and discarded. The remaining aqueous layer is acidified (pH<2) by addition of 12 M HCl (0.6 mL) and extracted two times with petroleum ether (4.8 mL). The pooled organic fractions are transferred to liquid scintillation vials, dried under nitrogen, dissolved in Aquasol scintillation fluid (7 ml), and radioactivity is quantified by liquid scintillation counting. Inhibition of fatty acid synthesis by the test compound is expressed as a relative percent inhibition of measured incorporation of [2-^14C]acetate into saponifiable lipids during the interval between [2-^14C]acetate injection and CO2 asphyxiation in animals receiving test compound, compared to control animals receiving only the vehicle.
Compounds of the present invention, and salts thereof, were evaluated for inhibition of fatty acid synthesis as described above.

hACC1-CT = target: T3, hACC1-CT (Homo sapiens, UniProt Q13085); test: acetyl-CoA/malonyl-CoA isotope exchange assay, CT half-reaction; assay type: biochemical
T3 construct: PCR primers were designed for full-length hACC1 and hACC2 using GenBank submissions AY237919 and AJ575592, respectively; His tag (C); made in house; host or cells: baculovirus, Sf9 insect cells
Experimental: Overall ACC activity is comprised of two half-reactions, the BC reaction (the ATP-dependent carboxylation of biotin) and the CT reaction (the transfer of the carboxyl group from biotin to acetyl-CoA to form malonyl-CoA). Thus, it is of interest to localize the site of action of ACC inhibitors. To this end, representative compounds are tested in an acetyl-CoA/malonyl-CoA isotope exchange reaction which specifically measures the CT-half reaction. This assay is performed with slight modifications of published procedures (Gregolin et al., J Biol Chem, 1968, 243:4227-4235; Rendina et al., J Agric Food Chem, 1990, 38:1282-1287). Briefly, the reaction mixture (50 μL) contained 50 mM Hepes (pH 7.4), 20 mM K-citrate, 1.5 mM MgSO4, 4 mM malonyl-CoA, 1.67 mM acetyl-CoA, 0.34 mM [^14C]acetyl-CoA (about 60 mCi/mmol), 0.75 mg/mL BSA, and 1% (v/v) DMSO with or without inhibitor. Reactions are initiated by the addition of hACCl (0.3 μg) or hACC2 (0.15 μg) enzyme and incubated at 37° C. for 10 min. Reactions are stopped by addition of a 0.2M sodium arsenate solution containing 1U of phosphotransacetylase (13.5 μL) and incubation at room temperature for 30 min. […] The samples are then resuspended in water (200 μL), added to scintillation cocktail (3 mL), and counted in a scintillation counter to quantify radiolabel incorporated into malonyl-CoA. […]

Chain of uACC (Ustilago maydis ACC) (A0A0D1DYD5 entry or part of it): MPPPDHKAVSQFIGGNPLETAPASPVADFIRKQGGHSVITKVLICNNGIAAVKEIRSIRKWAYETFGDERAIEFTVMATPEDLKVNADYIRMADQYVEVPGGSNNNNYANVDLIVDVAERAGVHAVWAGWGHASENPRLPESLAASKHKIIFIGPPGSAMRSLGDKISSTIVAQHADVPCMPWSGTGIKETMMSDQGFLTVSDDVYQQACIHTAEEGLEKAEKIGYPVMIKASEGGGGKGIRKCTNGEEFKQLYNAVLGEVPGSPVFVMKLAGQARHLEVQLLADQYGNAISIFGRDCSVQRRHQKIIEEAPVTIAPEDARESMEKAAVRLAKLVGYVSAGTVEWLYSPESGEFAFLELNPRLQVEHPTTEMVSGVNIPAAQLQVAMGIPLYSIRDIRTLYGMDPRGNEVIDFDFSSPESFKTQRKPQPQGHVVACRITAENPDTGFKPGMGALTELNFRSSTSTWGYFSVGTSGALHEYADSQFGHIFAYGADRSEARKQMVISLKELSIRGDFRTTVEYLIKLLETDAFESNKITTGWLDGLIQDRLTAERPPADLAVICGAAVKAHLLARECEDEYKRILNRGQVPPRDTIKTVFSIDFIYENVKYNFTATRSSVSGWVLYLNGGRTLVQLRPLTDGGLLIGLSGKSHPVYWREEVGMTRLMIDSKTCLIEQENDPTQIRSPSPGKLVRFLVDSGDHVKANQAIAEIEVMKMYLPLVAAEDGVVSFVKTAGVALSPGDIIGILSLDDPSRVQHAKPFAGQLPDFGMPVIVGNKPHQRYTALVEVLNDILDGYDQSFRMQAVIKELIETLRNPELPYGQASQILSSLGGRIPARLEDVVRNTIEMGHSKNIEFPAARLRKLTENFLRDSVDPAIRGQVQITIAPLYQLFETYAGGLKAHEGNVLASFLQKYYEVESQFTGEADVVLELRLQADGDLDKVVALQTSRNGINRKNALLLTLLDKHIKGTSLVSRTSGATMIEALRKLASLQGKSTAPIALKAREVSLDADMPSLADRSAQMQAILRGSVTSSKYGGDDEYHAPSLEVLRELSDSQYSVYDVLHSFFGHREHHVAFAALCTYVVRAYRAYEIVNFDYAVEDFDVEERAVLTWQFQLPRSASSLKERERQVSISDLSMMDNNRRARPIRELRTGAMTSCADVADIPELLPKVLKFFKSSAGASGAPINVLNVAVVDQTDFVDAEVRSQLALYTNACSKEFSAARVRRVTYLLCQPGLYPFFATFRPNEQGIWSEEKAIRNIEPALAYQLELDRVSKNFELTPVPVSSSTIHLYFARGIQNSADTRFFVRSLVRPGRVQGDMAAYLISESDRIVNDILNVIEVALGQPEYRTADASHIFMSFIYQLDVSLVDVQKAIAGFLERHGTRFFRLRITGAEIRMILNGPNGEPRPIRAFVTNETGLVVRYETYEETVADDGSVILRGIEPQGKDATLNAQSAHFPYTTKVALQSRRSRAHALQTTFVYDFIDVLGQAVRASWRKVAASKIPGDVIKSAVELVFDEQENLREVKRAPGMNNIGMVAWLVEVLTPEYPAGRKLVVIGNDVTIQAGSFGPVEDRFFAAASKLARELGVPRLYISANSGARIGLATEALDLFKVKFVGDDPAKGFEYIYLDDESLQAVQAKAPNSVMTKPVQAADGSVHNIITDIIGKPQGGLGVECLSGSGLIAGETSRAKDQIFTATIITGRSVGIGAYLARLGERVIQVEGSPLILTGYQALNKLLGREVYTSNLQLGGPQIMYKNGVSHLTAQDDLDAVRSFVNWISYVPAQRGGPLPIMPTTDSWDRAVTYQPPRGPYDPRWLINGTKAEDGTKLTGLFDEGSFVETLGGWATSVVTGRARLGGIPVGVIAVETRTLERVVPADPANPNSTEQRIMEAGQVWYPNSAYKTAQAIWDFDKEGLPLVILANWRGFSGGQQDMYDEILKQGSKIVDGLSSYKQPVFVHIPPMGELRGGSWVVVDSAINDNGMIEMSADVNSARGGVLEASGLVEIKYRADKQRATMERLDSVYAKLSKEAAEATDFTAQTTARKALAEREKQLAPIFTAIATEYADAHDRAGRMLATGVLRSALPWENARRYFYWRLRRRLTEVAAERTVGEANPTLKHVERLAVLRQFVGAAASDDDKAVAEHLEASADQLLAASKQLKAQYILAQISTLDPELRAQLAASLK
T1 sequence (O00763 149-2458 limits assumed): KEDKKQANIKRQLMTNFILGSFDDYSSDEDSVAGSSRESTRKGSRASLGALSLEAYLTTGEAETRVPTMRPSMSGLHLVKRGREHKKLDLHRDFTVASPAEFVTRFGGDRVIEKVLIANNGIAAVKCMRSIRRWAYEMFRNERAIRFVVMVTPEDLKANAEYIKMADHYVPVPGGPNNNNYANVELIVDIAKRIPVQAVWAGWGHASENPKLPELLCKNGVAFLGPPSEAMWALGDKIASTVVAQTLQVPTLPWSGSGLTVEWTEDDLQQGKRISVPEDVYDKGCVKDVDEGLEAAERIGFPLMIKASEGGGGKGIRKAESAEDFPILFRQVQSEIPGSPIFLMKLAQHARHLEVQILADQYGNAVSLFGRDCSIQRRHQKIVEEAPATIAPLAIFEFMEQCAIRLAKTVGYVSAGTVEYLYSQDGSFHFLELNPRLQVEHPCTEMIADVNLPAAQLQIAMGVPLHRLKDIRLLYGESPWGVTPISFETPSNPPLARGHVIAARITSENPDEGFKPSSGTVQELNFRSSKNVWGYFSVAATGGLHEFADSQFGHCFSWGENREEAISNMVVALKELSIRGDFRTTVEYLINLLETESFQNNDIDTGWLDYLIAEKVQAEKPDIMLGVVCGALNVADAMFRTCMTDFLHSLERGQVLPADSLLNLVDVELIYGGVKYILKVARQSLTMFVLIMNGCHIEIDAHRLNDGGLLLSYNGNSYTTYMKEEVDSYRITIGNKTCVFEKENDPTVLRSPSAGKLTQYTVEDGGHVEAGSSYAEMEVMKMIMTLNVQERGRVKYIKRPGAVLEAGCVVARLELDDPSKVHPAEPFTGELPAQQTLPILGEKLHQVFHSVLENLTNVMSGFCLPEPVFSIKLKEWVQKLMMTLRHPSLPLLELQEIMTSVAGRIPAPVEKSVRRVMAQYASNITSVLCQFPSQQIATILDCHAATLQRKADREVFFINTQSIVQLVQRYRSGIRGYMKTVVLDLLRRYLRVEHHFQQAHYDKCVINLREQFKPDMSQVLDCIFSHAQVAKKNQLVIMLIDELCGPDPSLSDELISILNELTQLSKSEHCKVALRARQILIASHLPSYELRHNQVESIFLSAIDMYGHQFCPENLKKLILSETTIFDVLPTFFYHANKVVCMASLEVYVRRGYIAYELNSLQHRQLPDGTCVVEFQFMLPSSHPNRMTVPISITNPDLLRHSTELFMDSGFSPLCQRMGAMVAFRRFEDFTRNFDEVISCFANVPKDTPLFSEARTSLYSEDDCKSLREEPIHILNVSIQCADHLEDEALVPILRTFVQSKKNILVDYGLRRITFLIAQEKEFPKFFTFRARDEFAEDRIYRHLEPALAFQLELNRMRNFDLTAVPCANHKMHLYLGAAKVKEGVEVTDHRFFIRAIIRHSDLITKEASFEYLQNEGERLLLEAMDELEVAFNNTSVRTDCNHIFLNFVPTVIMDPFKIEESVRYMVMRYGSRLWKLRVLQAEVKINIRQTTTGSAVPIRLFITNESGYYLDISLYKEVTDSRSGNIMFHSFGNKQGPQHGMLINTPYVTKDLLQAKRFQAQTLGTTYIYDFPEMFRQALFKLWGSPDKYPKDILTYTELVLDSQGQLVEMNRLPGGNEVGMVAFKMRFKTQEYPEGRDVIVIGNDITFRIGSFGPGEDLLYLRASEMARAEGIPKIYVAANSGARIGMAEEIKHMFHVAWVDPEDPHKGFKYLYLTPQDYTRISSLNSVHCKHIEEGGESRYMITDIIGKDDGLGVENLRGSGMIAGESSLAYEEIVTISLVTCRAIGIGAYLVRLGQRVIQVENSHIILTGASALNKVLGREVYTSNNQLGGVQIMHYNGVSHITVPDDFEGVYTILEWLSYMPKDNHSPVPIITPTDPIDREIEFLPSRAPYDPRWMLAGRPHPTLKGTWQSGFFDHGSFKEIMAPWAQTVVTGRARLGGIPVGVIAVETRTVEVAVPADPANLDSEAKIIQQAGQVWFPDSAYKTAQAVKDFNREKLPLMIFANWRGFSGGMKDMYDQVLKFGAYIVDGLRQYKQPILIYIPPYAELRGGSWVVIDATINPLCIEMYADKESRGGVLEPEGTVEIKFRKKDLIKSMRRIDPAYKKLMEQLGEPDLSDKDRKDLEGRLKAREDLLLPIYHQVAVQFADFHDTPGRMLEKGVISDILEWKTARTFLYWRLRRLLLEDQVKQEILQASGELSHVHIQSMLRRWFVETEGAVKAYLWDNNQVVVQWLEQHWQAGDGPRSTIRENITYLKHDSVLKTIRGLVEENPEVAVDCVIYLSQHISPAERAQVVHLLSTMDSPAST

| SMILES | IC50 (hACC2) [nM] | IC50 (hACC1) [nM] | IC50 [1] [µM] | inhibition at 1 µM (HepG2 cells; HepG2, 1 μM) [%] | inhibition at 10 µM (HepG2 cells; HepG2, 10 μM) [%] | stimulation of fatty acid oxidation (C2C12 cells; C2C12, 0.2 μM) [%] | stimulation of fatty acid oxidation (C2C12 cells; C2C12, 2 μM) [%] | activity at 3.3 µM [2] [%] | activity at 10 µM [2] [%] | activity at 3.3 µM [3] [%] | activity at 10 µM [3] [%] | activity at 3.3 µM [4] [%] | activity at 10 µM [4] [%] | activity at 3.3 µM [5] [%] | activity at 10 µM [5] [%] | Percent Inhibition at 10 mg/Kg [6] [%] | IC50 (hACC1-CT) [nM] | Percent Inhibition at 30 mg/Kg [6] [%] |
| --- | --- | --- | --- | --- | --- | --- | --- | --- | --- | --- | --- | --- | --- | --- | --- | --- | --- | --- |
| Cc1c(C(=O)N2CCC3(CC2)NC(=O)c2ccccc2O3)[nH]c2ccc(F)cc12 [Compound 6, 1′-[(5-Fluoro-3-methyl-1H-indol-2-yl)carbonyl]spiro[2H-1,3-benzoxazin-2,4′-piperidin]-4-(3H)-one] | 2000 | 2300 | 40 | 14 | 32 | 260 | 299 | – | – | – | – | – | – | – | – | – | – | – |
| COc1cc(C(=O)N2CCC3(CC2)NC(=O)c2cc(N4CCOCC4)ccc2O3)nc2c(OC)cccc12 [Compound 196] | 21 | 200 | – | – | – | – | – | 73.7 | 56.1 | 81.6 | 56.4 | 50.7 | 39 | 63.6 | 58.5 | 67 | – | – |
| COc1ccc(OC)c2[nH]c(C(=O)N3CCC4(CC3)NC(=O)c3ccccc3O4)cc12 [Compound 7, 1′-[(4,7-Dimethoxy-1H-indol-2-yl)carbonyl]spiro[2H-1,3-benzoxazin-2,4′-piperidin]-4-(3H)-one] | 850 | 1100 | 20 | – | – | – | – | – | – | – | – | – | – | – | – | – | 1200 | – |
| CCOc1ccc2c(c1)C(=O)NC1(CCN(C(=O)c3[nH]c4c(OC)cccc4c3C)CC1)O2 [Compound 144] | 88 | 61 | 14 | – | – | – | – | 88.9 | 34.5 | 65 | 25.1 | 76.5 | 67.2 | 64.9 | 39.1 | – | – | 9 |
| COc1cc(C(=O)N2CCC3(CC2)NC(=O)c2cc(OC(F)(F)F)ccc2O3)nc2c(OC)cccc12 [Compound 172] | – | 7 | – | – | – | – | – | 54.1 | 29.5 | 97.4 | 65.5 | 63 | 55.7 | 61.4 | 41.6 | 5 | – | – |
| COc1cc(C(=O)N2CCC3(CC2)NC(=O)c2cc(C(C)C)ccc2O3)nc2c(OC)cccc12 [Compound 186] | 2 | 2 | – | – | – | – | – | 74.2 | 39.2 | 59.5 | 52.1 | 48.9 | 33.2 | 53.6 | 41.8 | 55 | – | 78 |
